Laboratory results from patent publication US8901307B2, “Chemical compounds 251” (AstraZeneca AB, priority 2008, dated 2014).
Where a name gives a salt, the structure may show the parent alone.

Assays:
[1] = molecular target: T1, human His-PIM1 [2-313] (Homo sapiens, UniProt P11309); experiment: PIM1 in-vitro mobility shift assay (Caliper LC3000, FL-Ahx-Bad phosphorylation); type: biochemical; settings: 1.5 h; percent inhibition at 0.3 uM compound; read-out: PIM1 % I at 0.3 uM
T1 construct: purified human His-PIM1 [2-313] enzyme; His (N); purchased University of Dundee, Scotland; host or cells: baculovirus system
T1 sequence (P11309 2-313): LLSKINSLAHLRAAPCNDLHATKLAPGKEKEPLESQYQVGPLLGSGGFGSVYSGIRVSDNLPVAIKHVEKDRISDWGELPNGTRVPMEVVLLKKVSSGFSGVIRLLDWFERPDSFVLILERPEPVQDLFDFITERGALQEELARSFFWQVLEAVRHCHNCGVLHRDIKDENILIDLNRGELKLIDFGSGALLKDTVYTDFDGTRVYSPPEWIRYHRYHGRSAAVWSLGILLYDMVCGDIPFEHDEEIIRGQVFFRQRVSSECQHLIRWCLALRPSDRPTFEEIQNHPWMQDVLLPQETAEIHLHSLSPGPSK
Procedure, shortened: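 Compound preincubated 20 min at 25 °C with 2.4 nM PIM1, 3.6 µM FL-Ahx-Bad peptide and 240 µM ATP (1.2× mix concentrations). Reaction started with 24 mM MgCl2 mix, run 90 min at 25 °C, EDTA-stopped. Phospho/unphospho peptide separated by microfluidic mobility shift; percent inhibition from ratiometric turnover.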

[2] = molecular target: T2, human His-PIM2 [23-299] (Homo sapiens, UniProt Q9P1W9); experiment: PIM2 in-vitro mobility shift assay (Caliper LC3000, FL-Ahx-Bad phosphorylation); type: biochemical; settings: 1.5 h; percent inhibition at 0.3 uM compound; read-out: PIM2 % I at 0.3 uM
T2 construct: purified human His-PIM2 [23-299] enzyme; His (N); host or cells: E. coli
T2 sequence (Q9P1W9 23-299): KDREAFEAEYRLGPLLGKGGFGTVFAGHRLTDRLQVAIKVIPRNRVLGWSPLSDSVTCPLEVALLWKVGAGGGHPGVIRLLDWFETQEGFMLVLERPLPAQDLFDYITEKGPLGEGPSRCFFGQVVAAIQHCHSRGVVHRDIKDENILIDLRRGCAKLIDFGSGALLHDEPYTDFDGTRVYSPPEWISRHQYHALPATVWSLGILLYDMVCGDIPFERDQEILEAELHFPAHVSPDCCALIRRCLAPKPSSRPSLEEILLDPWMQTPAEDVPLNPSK

## CN(C)[C@H]1CCN(c2ccc(Cl)cc2C=C2SC(=O)NC2=O)C1 [Example 84I, (S)-5-(5-chloro-2-(3-(dimethylamino)pyrrolidin-1-yl)benzylidene)thiazolidine-2,4-dione]
[1]
  inhibition at 0.3 µM: > 95%
[2]
  inhibition at 0.3 µM: 82.7%

## Cc1ccc(C=C2SC(=O)NC2=O)c(N2CC[C@H](N(C)C)C2)c1 [Example 84J, (S)-5-(2-(3-(dimethylamino)pyrrolidin-1-yl)-4-methylbenzylidene)thiazolidine-2,4-dione]
[1]
  inhibition at 0.3 µM: 93.3%
[2]
  inhibition at 0.3 µM: 40.4%

## CN(C)[C@H]1CCN(c2ccc(F)cc2C=C2SC(=O)NC2=O)C1 [Example 84K, (S)-5-(2-(3-(dimethylamino)pyrrolidin-1-yl)-5-fluorobenzylidene)thiazolidine-2,4-dione]
[1]
  inhibition at 0.3 µM: > 95%
[2]
  inhibition at 0.3 µM: 90.8%

## Cc1ccc(N2CC[C@H](N(C)C)C2)c(C=C2SC(=O)NC2=O)c1 [Example 84L, (S)-5-(2-(3-(dimethylamino)pyrrolidin-1-yl)-5-methylbenzylidene)thiazolidine-2,4-dione]
[1]
  inhibition at 0.3 µM: > 95%
[2]
  inhibition at 0.3 µM: 55.2%

## CN(C)[C@H]1CCN(c2ccc(Br)cc2C=C2SC(=O)NC2=O)C1 [Example 84M, (S)-5-(5-bromo-2-(3-(dimethylamino)pyrrolidin-1-yl)benzylidene)thiazolidine-2,4-dione]
[1]
  inhibition at 0.3 µM: > 95%
[2]
  inhibition at 0.3 µM: 80.9%

## CN(C)[C@H]1CCN(c2c(F)cccc2C=C2SC(=O)NC2=O)C1 [Example 84N, (S)-5-(2-(3-(dimethylamino)pyrrolidin-1-yl)-3-fluorobenzylidene)thiazolidine-2,4-dione]
[1]
  inhibition at 0.3 µM: 92.8%
[2]
  inhibition at 0.3 µM: 81.4%

## CN(C)[C@H]1CCN(c2cccc(Cl)c2C=C2SC(=O)NC2=O)C1 [Example 84O, (S)-5-(2-chloro-6-(3-(dimethylamino)pyrrolidin-1-yl)benzylidene)thiazolidine-2,4-dione]
[1]
  inhibition at 0.3 µM: < 5%
[2]
  inhibition at 0.3 µM: < 5%

## N[C@H]1CCN(c2cc(Cl)ccc2/C=C2\SC(=O)NC2=O)C1 [Example 85, (S,Z)-5-(2-(3-aminopyrrolidin-1-yl)-4-chlorobenzylidene)thiazolidine-2,4-dione hydrochloride]
[1]
  inhibition at 0.3 µM: > 95%
[2]
  inhibition at 0.3 µM: 82.4%

## N[C@H]1CCN(c2c(Cl)cccc2/C=C2\SC(=O)NC2=O)C1 [Example 86, (S,Z)-5-(2-(3-aminopyrrolidin-1-yl)-3-chlorobenzylidene)thiazolidine-2,4-dione hydrochloride]
[1]
  inhibition at 0.3 µM: > 95%
[2]
  inhibition at 0.3 µM: > 95%

## O=C1NC(=O)/C(=C/c2cc(C(F)(F)F)ccc2N2CCNCC2)S1 [Example 87, (Z)-5-(2-(piperazin-1-yl)-5-(trifluoromethyl)benzylidene)thiazolidine-2,4-dione hydrochloride]
[1]
  inhibition at 0.3 µM: > 95%
[2]
  inhibition at 0.3 µM: 84.2%

## N[C@H]1CCN(c2ccc(C(F)(F)F)cc2/C=C2\SC(=O)NC2=O)C1 [Example 88, (S,Z)-5-(2-(3-aminopyrrolidin-1-yl)-5-(trifluoromethyl)benzylidene)thiazolidine-2,4-dione hydrochloride]
[1]
  inhibition at 0.3 µM: > 95%
[2]
  inhibition at 0.3 µM: 88.4%

## O=C1NC(=O)/C(=C/c2cccnc2N2CCNCC2)S1 [Example 89, (Z)-5-((2-(piperazin-1-yl)pyridin-3-yl)methylene)thiazolidine-2,4-dione hydrochloride]
[1]
  inhibition at 0.3 µM: 48.4%
[2]
  inhibition at 0.3 µM: 21.5%

## NCCC(=O)N1CCN(c2ncccc2/C=C2\SC(=O)NC2=O)CC1 [Example 90, (Z)-5-((2-(4-(3-aminopropanoyl)piperazin-1-yl)pyridin-3-yl)methylene)thiazolidine-2,4-dione trifluoroacetate]
[1]
  inhibition at 0.3 µM: 78.2%
[2]
  inhibition at 0.3 µM: 86.3%

## O=C1NC(=O)/C(=C/c2ccccc2N2CCN(C(=O)C3CCNCC3)CC2)S1 [Example 91, (Z)-5-(2-(4-(piperidine-4-carbonyl)piperazin-1-yl)benzylidene)thiazolidine-2,4-dione]
[1]
  inhibition at 0.3 µM: 6.6%
[2]
  inhibition at 0.3 µM: 16.4%

## O=C1NC(=O)/C(=C/c2cc(C(F)(F)F)ccc2N2CCN(C(=O)C3CCCNC3)CC2)S1 (stereo not shown) [Example 92, (Z)-5-(2-(4-(piperidine-3-carbonyl)piperazin-1-yl)-5-(trifluoromethyl)benzylidene)thiazolidine-2,4-dione hydrochloride]
[1]
  inhibition at 0.3 µM: > 95%
[2]
  inhibition at 0.3 µM: 81.5%

## NCCC(=O)N1CCN(c2ccc(C(F)(F)F)cc2/C=C2\SC(=O)NC2=O)CC1 [Example 93, (Z)-5-(2-(4-(3-aminopropanoyl)piperazin-1-yl)-5-(trifluoromethyl)benzylidene)thiazolidine-2,4-dione hydrochloride]
[1]
  inhibition at 0.3 µM: > 95%
[2]
  inhibition at 0.3 µM: 66.3%

## COc1cccc(/C=C2\SC(=O)NC2=O)c1N1CCN(C(=O)CCN)CC1 [Example 94, (Z)-5-(2-(4-(3-aminopropanoyl)piperazin-1-yl)-3-methoxybenzylidene)thiazolidine-2,4-dione hydrochloride]
[1]
  inhibition at 0.3 µM: > 95%
[2]
  inhibition at 0.3 µM: > 95%

## NCCC(=O)N1CCN(c2c(Cl)cccc2/C=C2\SC(=O)NC2=O)CC1 [Example 95, (Z)-5-(2-(4-(3-aminopropanoyl)piperazin-1-yl)-3-chlorobenzylidene)thiazolidine-2,4-dione hydrochloride]
[1]
  inhibition at 0.3 µM: > 95%
[2]
  inhibition at 0.3 µM: > 95%

## COc1cccc(/C=C2\SC(=O)NC2=O)c1N1CC[C@H](N)C1 [Example 96, hydrochloride]
[1]
  inhibition at 0.3 µM: > 95%
[2]
  inhibition at 0.3 µM: > 95%

## COc1cccc(/C=C2\SC(=O)NC2=O)c1N1CCNCC1 [Example 97, (Z)-5-(3-methoxy-2-(piperazin-1-yl)benzylidene)thiazolidine-2,4-dione hydrochloride]
[1]
  inhibition at 0.3 µM: > 95%
[2]
  inhibition at 0.3 µM: 86.4%

## O=C1NC(=O)/C(=C/c2cccc(Cl)c2N2CCNCC2)S1 [Example 98, (Z)-5-(3-chloro-2-(piperazin-1-yl)benzylidene)thiazolidine-2,4-dione hydrochloride]
[1]
  inhibition at 0.3 µM: > 95%
[2]
  inhibition at 0.3 µM: 81.4%

## COc1cc(/C=C2\SC(=O)NC2=O)c(N2CCC(CN)C2)cc1OC (stereo not shown) [Example 99, (Z)-5-(2-(3-(aminomethyl)pyrrolidin-1-yl)-4,5-dimethoxybenzylidene)thiazolidine-2,4-dione hydrochloride]
[1]
  inhibition at 0.3 µM: > 95%
[2]
  inhibition at 0.3 µM: > 95%

## COc1cc(/C=C2\SC(=O)NC2=O)c(N2CC[C@@H](N)C2)cc1OC [Example 100, (R,Z)-5-(2-(3-aminopyrrolidin-1-yl)-4,5-dimethoxybenzylidene)thiazolidine-2,4-dione hydrochloride]
[1]
  inhibition at 0.3 µM: 93%
[2]
  inhibition at 0.3 µM: 93.9%

## COc1cc(/C=C2\SC(=O)NC2=O)c(N2CC[C@H](N)C2)cc1OC [Example 101, (S,Z)-5-(2-(3-aminopyrrolidin-1-yl)-4,5-dimethoxybenzylidene)thiazolidine-2,4-dione hydrochloride]
[1]
  inhibition at 0.3 µM: > 95%
[2]
  inhibition at 0.3 µM: > 95%

## O=C1NC(=O)/C(=C/c2ccccc2N2CCCN(C(=O)C3CCCNC3)CC2)S1 (stereo not shown) [Example 102, (Z)-5-(2-(4-(piperidine-3-carbonyl)-1,4-diazepan-1-yl)benzylidene)thiazolidine-2,4-dione hydrochloride]
[1]
  inhibition at 0.3 µM: 93.3%
[2]
  inhibition at 0.3 µM: 91.9%

## NCCCCC(=O)N1CCCN(c2ccccc2/C=C2\SC(=O)NC2=O)CC1 [Example 103, (Z)-5-(2-(4-(5-aminopentanoyl)-1,4-diazepan-1-yl)benzylidene)thiazolidine-2,4-dione hydrochloride]
[1]
  inhibition at 0.3 µM: > 95%
[2]
  inhibition at 0.3 µM: 88.7%

## NCCCC(=O)N1CCCN(c2ccccc2/C=C2\SC(=O)NC2=O)CC1 [Example 104, (Z)-5-(2-(4-(4-aminobutanoyl)-1,4-diazepan-1-yl)benzylidene)thiazolidine-2,4-dione hydrochloride]
[1]
  inhibition at 0.3 µM: > 95%
[2]
  inhibition at 0.3 µM: 92.4%

## NCCC(=O)N1CCCN(c2ccccc2/C=C2\SC(=O)NC2=O)CC1 [Example 105, (Z)-5-(2-(4-(3-aminopropanoyl)-1,4-diazepan-1-yl)benzylidene)thiazolidine-2,4-dione hydrochloride]
[1]
  inhibition at 0.3 µM: > 95%
[2]
  inhibition at 0.3 µM: 92.4%

## O=C1NC(=O)/C(=C/c2ccccc2N2CCCNCC2)S1 [Example 106, (Z)-5-(2-(1,4-diazepan-1-yl)benzylidene)thiazolidine-2,4-dione hydrochloride]
[1]
  inhibition at 0.3 µM: > 95%
[2]
  inhibition at 0.3 µM: 92.8%

## NCCCC(=O)N1CCN(c2ccccc2/C=C2\SC(=O)NC2=O)CC1 [Example 107, (Z)-5-(2-(4-(4-aminobutanoyl)piperazin-1-yl)benzylidene)thiazolidine-2,4-dione hydrochloride]
[1]
  inhibition at 0.3 µM: > 95%
[2]
  inhibition at 0.3 µM: > 95%

## NCCCCC(=O)N1CCN(c2ccccc2/C=C2\SC(=O)NC2=O)CC1 [Example 108, (Z)-5-(2-(4-(5-aminopentanoyl)piperazin-1-yl)benzylidene)thiazolidine-2,4-dione hydrochloride]
[1]
  inhibition at 0.3 µM: > 95%
[2]
  inhibition at 0.3 µM: > 95%

## O=C1NC(=O)/C(=C/c2ccccc2N2CCN(C(=O)c3ccc(CN4CCNCC4)cc3)CC2)S1 [Example 109, (Z)-5-(2-(4-(4-(piperazin-1-ylmethyl)benzoyl)piperazin-1-yl)benzylidene)thiazolidine-2,4-dione hydrochloride]
[1]
  inhibition at 0.3 µM: 64.2%
[2]
  inhibition at 0.3 µM: 65.8%
